Measured values taken from US11606956B2, “4-chloroindole-3-acetic acid for controlling unwanted plants” (PREMIER TECH TECHNOLOGIES LTÉE, priority 2014, dated 2023).

Legend:
barley = conditions: cited from earlier work; for quantity sufficient to affect the growth by 50%: barley (monocotyledonous), aqueous solution containing 10% ethanol
dandelion [1] = assay: Dandelion control, targeted applications on turfed terrain (damage rating 0-5, mortality %); type: in vivo, Taraxacum officinale; conditions: for control efficacy (damage rating and mortality percentage): 0.014 to 0.036 g/plant
Description: (§1) Control: eradication of weeds assessed, after a certain length of time, based on a visible damage rating of the foliage, varying from 0 to 5, and/or the mortality percentage observed on the treated plants.
The experiment was conducted using a randomized complete block design. Four repetitions were done for each treatment.
Dependent variable: mean damage rating (from 0 to 5) with the variation coefficient assessed after 42 days.
Dependent variable: Mean mortality percentage with the variation coefficient assessed after 42 days.
Treatment: solution of 4Cl-IAA applied at a dose of 0.03 g/plant containing 10% urea as co-ingredient
Dependent variable: mean damage rating (from 0 to 5)
The experiment was conducted using a randomized complete block design. Four repetitions were done for each treatment, except for 4Cl-IAA methyl ester, where three repetitions were done.
Treatment: the applied quantities varied from 0.014 to 0.036 g/plant, except for IAA, where the quantity was higher (0.2 g/plant) in light of the information found in the literature on the effect of the latter.
Dependent variable: mean damage rating (from 0 to 5) and mean mortality percentage assessed between 28 and 35 days after application

turf [2] = assay: Selectivity: turf impact rating (0-3), targeted applications; type: in vivo; conditions: doses below 0.1 g/plant; without co-ingredient; after 7 days; rating 0 to 3
Description: Selectivity of the effect: absence of a pronounced effect of the herbicide on the desirable plants assessed based on an impact rating on the latter, varying from 0 to 3 in the case of turf. [table] The experiment was conducted using a randomized complete block design. Five repetitions were done for each treatment. Treatment: 4Cl-IAA without co-ingredient Dependent variable: Impact rating (from 0 to 3) on the turf assessed after 7 days.

plantain = assay: Plantain control, second targeted application; type: in vivo, Plantago sp.; conditions: 0.015, 0.023 and 0.030 g/plant; without co-ingredient
Description: The experiment was conducted using randomized complete block design. Four repetitions were done for each treatment. Treatment: 4Cl-IAA without co-ingredient at three doses, i.e., 0.015, 0.023 and 0.030 g/plant Dependent variable: mean mortality percentage

[3] = test system: dicotyledonous weed species; assay: Weed species controlled with targeted applications (Example 10); type: in vivo; conditions: 0.022 to 0.036 g/plant; after 21 to 40 days depending on the species; weed species of Table 4
Description: The experiments were conducted according to completely randomized design and randomized complete block design with targeted applications for weed control on various terrain covered in turf.
Treatment: 4Cl-IAA without co-ingredient with doses varying from 0.022 to 0.036 g/plant
Variables: Observation of a damage rating above 4 and a mortality percentage above 80%, assessed after a period of 21 to 40 days, depending on the species.

dandelion [4] = assay: Dandelion control, spreading applications (damage rating 0-5); type: in vivo, Taraxacum officinale; conditions: 100 mL/m^2, after 50 days
Description: as §1
(§2) The experiment was conducted using a randomized complete block design. Three repetitions were done for each treatment with surface areas of 0.5 m^2.
(§3) Treatment: 4Cl-IAA without co-ingredient with an application rate of 100 mL/m^2
(§4) Dependent variable: mean damage rating (from 0 to 5) of the dandelion and mean impact rating (from 0 to 3) on the turf assessed after 50 days

turf [5] = assay: Selectivity: turf impact rating (0-3), spreading applications; type: in vivo; conditions: for Turf impact rating: 100 mL/m^2, after 50 days
Description: Selectivity of the effect: absence of a pronounced effect of the herbicide on the desirable plants assessed based on an impact rating on the latter, varying from 0 to 3 in the case of turf.
as §2, §3, §4
The experiment was conducted using a completely randomized design with surface areas of 2 m^2 per treatment.
Dependent variable: impact rating (from 0 to 3) on the turf assessed after 4 and 90 days

[6] = Peroxide deterioration tests; type: physicochemical
[7] = Storage stability of finished product; type: physicochemical; conditions: finished product incorporating the molecule; room temperature
peas and mustard = conditions: aqueous solution containing 10% ethanol; cited from earlier work
[8] = 28 to 35 days after application
[9] = 0.2 g/plant, 28 to 35 days after application

SMILES: O=C(O)COc1ccc(Cl)cc1Cl [2,4-D, 2,4-dichlorophenoxyacetic acid, reference compound]
- quantity sufficient to affect the growth by 50% (barley): 0.5 g/m^2

SMILES: O=C(O)Cc1c[nH]c2cccc(Cl)c12 [4Cl-IAA, 4-chloroindole-3-acetic acid]
- control efficacy (damage rating and mortality percentage) (dandelion [1]; [8]): control efficacies close to those observed with a 2,4-D-based herbicide
- damage rating (dandelion [1]; after 3 days, solution containing 0.45% of 4Cl-IAA, rating 0 to 5): only a small effect
- damage rating for dandelion control (dandelion [1]; after 35 days, solution containing 0.45% of 4Cl-IAA, rating 0 to 5): 5
- damage rating on dandelions (dandelion [1]; dose 0.0075 g per plant, without vs with chelating agent (HEDTA or EDDS), rating 0 to 5): 3.1
- decrease of the mortality percentage (dandelion [1]; doses below 0.01 g/plant, without co-ingredient, after 42 days): about 50%
- turf impact (turf [2]): zero to acceptable
- control efficacy (mean mortality percentage), effect of a second application (plantain): pronounced improvement in the control efficacy
- damage rating [3]: above 4
- mortality percentage [3]: above 80%
- Dandelion damage rating (dandelion [4]; dose 0.3 g/m^2): 3.0
- Dandelion damage rating (dandelion [4]; dose 0.6 g/m^2): 4.1
- Dandelion damage rating (dandelion [4]; dose 1.0 g/m^2): 3.8
- Dandelion damage rating (dandelion [4]; dose 1.2 g/m^2): 3.9
- impact rating on the turf (turf [5]; dose 0.25 g/m^2, after 4 days): 0
- impact rating on the turf (turf [5]; dose 0.25 g/m^2, after 90 days): 0
- Turf impact rating (turf [5]; dose 0.3 g/m^2): 0.7
- Turf impact rating (turf [5]; dose 0.6 g/m^2): 1.7
- impact rating on the turf (turf [5]; dose 0.6 g/m^2, after 4 days): 1
- impact rating on the turf (turf [5]; dose 0.6 g/m^2, after 90 days): 0
- impact rating on the turf (turf [5]; dose 0.9 g/m^2, after 4 days): 1
- impact rating on the turf (turf [5]; dose 0.9 g/m^2, after 90 days): 0
- Turf impact rating (turf [5]; dose 1.0 g/m^2): 1.7
- impact rating on the turf (turf [5]; dose 1.0 g/m^2, after 4 days): 2
- impact rating on the turf (turf [5]; dose 1.0 g/m^2, after 90 days): 0
- Turf impact rating (turf [5]; dose 1.2 g/m^2): 2.0
- impact rating on the turf (turf [5]; dose 1.2 g/m^2, after 4 days): 3
- impact rating on the turf (turf [5]; dose 1.2 g/m^2, after 90 days): 0
- stability in peroxide deterioration tests [6]: a certain stability
- stability in storage [7]: stability over two years
- quantity sufficient to affect the growth by 50% (barley): 0.17 g/m^2
- sensitivity of the monocotyledonous plant compared with 2,4-D (barley; barley): three times higher
- impact on the growth of dicotyledonous plants compared to 2,4-D (peas and mustard): about 4 times lower

SMILES: O=C(O)Cc1c[nH]c2ccccc12 [IAA, indole-3-acetic acid]
- mean damage rating (dandelion [1]; [9]): interesting damage rating
- mean mortality percentage (dandelion [1]; [9]): low mortality percentage

SMILES: COC(=O)Cc1c[nH]c2cccc(Cl)c12 [methyl ester of 4Cl-IAA]
- control efficacy (damage rating and mortality percentage) (dandelion [1]; [8]): control efficacies close to those observed with a 2,4-D-based herbicide
